Where a name gives a salt, the structure may show the parent alone.

Experimental findings from the supplement of paper PMC12137928 are described below.

For the test, the system named is HCT116. The note with it: 72 h. The procedure, abridged:
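Four-parameter Hill fits gave IC50 and maximal efficacy. The data were CellTiter-Glo luminescence readings in HCT116 cells, normalized so that vehicle was 0% and positive control was -100%, with pattern correction afterwards.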

As for `CC(=O)Oc1c(C)c(C)c2c(c1C)CCC(C)(CCCC(C)CCCC(C)CCCC(C)C)O2` (racemic) [dl-alpha-Tocopheryl acetate], the IC50 cell viability runs as follows: (ICRF193 0 nM) greater than 45.8 µM; (ICRF193 200 nM) greater than 45.8 µM.

For the molecule `CC(Cc1ccccc1)NCCCCl` (configuration not stated) [Mefenorex], the IC50 cell viability by setting is: (ICRF193 0 nM) greater than 45.8 µM; (ICRF193 200 nM) greater than 45.8 µM.

In the case of `Cc1onc(-c2ccccc2)c1C(=O)N[C@@H]1C(=O)N2[C@@H]1SC(C)(C)[C@@H]2C(=O)O` [Oxacillin sodium], the IC50 cell viability (ICRF193 0 nM) is greater than 45.8 µM and the IC50 cell viability (ICRF193 200 nM) is greater than 45.8 µM.

For the molecule `CC(CC(c1ccccc1)c1ccccc1)NC(C)(C)C` (configuration not stated) [Terodiline hydrochloride], the IC50 cell viability by setting is: (ICRF193 0 nM) greater than 45.8 µM; (ICRF193 200 nM) greater than 45.8 µM.

In the case of `O=P(O)(O)C(O)(Cc1cccnc1)P(=O)(O)O` [Risedronate sodium], the IC50 cell viability is, setting by setting: (ICRF193 0 nM) greater than 45.8 µM; (ICRF193 200 nM) greater than 45.8 µM.

Take `C#C[C@]1(O)CC[C@H]2[C@@H]3CCC4=C(CCC(=O)C4)[C@H]3CC[C@@]21C` [NORETHYNODREL]: the IC50 cell viability runs as follows: (ICRF193 0 nM) greater than 45.8 µM; (ICRF193 200 nM) greater than 45.8 µM.

As to `CC(C)(CO)[C@@H](O)C(=O)NCCC(=O)NCCSSCCNC(=O)CCNC(=O)[C@H](O)C(C)(C)CO` [D-Pantethine], the IC50 cell viability by setting is: (ICRF193 0 nM) greater than 45.8 µM; (ICRF193 200 nM) greater than 45.8 µM.

As for `Nc1ccc(S(=O)(=O)c2ccc(N)cc2)cc1` [Dapsone], the IC50 cell viability is greater than 45.8 µM (ICRF193 0 nM) and greater than 45.8 µM (ICRF193 200 nM).

In the case of `Oc1ccc(Cl)cc1Cc1ccccc1` [Clorophene], the IC50 cell viability was greater than 45.8 µM (ICRF193 0 nM) and greater than 45.8 µM (ICRF193 200 nM).

`CC[N+]1(C)[C@@H]2CC(OC(=O)[C@H](CO)c3ccccc3)C[C@H]1[C@@H]1O[C@@H]12` (some centres not stated) [Oxitropium Bromide]: the IC50 cell viability runs as follows: (ICRF193 0 nM) greater than 45.8 µM; (ICRF193 200 nM) greater than 45.8 µM.

In the case of `CNC[C@H](O)c1ccc(O)c(O)c1` [Epinephrine], the IC50 cell viability reads like this: (ICRF193 0 nM) greater than 45.8 µM; (ICRF193 200 nM) greater than 45.8 µM.

With `NS(=O)(=O)c1cc2c(cc1Cl)CN(C1CCCCC1)C2=O` [Chlorexolone], the IC50 cell viability by setting is: (ICRF193 0 nM) greater than 45.8 µM; (ICRF193 200 nM) greater than 45.8 µM.

For the molecule `CC[C@H]1OC(=O)[C@H](C)[C@@H](O[C@H]2C[C@@](C)(OC)[C@@H](O)[C@H](C)O2)[C@H](C)[C@@H](O[C@@H]2O[C@H](C)C[C@H](N(C)C)[C@H]2O)[C@](C)(OC)C[C@@H](C)C(=O)[C@H](C)[C@@H](O)[C@]1(C)O` [Clarithromycin], the IC50 cell viability by setting is: (ICRF193 0 nM) greater than 45.8 µM; (ICRF193 200 nM) greater than 45.8 µM.

For `Cc1c(-c2ccccc2)oc2c(C(=O)OCCN3CCCCC3)cccc2c1=O` [Flavoxate hydrochloride], the IC50 cell viability was greater than 45.8 µM (ICRF193 0 nM) and greater than 45.8 µM (ICRF193 200 nM).

For the molecule `O=C(O)CCCN1CCC(O[C@@H](c2ccc(Cl)cc2)c2ccccn2)CC1` [Bepotastine (Beslilate)], the IC50 cell viability was greater than 45.8 µM (ICRF193 0 nM) and greater than 45.8 µM (ICRF193 200 nM).

`CC#CCC(C)[C@H](O)/C=C/[C@@H]1[C@H]2C/C(=C/CCCC(=O)O)C[C@H]2C[C@H]1O` (some centres not stated) [Iloprost]: the IC50 cell viability reads like this: (ICRF193 0 nM) greater than 45.8 µM; (ICRF193 200 nM) greater than 45.8 µM.

`CC(C)CN(C[C@@H](O)[C@H](Cc1ccccc1)NC(=O)O[C@H]1CCOC1)S(=O)(=O)c1ccc(N)cc1` [Amprenavir]: the IC50 cell viability was greater than 45.8 µM (ICRF193 0 nM) and greater than 45.8 µM (ICRF193 200 nM).

Consider `NS(=O)(=O)c1cc(C2(O)NC(=O)c3ccccc32)ccc1Cl` (configuration not stated) [Chlorthalidone], for which the IC50 cell viability is greater than 45.8 µM (ICRF193 0 nM) and greater than 45.8 µM (ICRF193 200 nM).

In the case of `Cc1ccccc1N1C(=O)c2cc(S(N)(=O)=O)c(Cl)cc2NC1C` (configuration not stated) [Metolazone], the IC50 cell viability by setting is: (ICRF193 0 nM) greater than 45.8 µM; (ICRF193 200 nM) greater than 45.8 µM.

Consider `COC1CC(=C(c2cccs2)c2cccs2)C[N+](C)(C)C1` (configuration not stated) [Timepidium bromide], for which the IC50 cell viability is greater than 45.8 µM (ICRF193 0 nM) and greater than 45.8 µM (ICRF193 200 nM).

For the molecule `O=c1[nH]cnc2c([C@@H]3N[C@H](CO)[C@@H](O)[C@H]3O)c[nH]c12` [Forodesine (hydrochloride)], the IC50 cell viability (ICRF193 0 nM) is greater than 45.8 µM and the IC50 cell viability (ICRF193 200 nM) was greater than 45.8 µM.
